For test [1], the system named is Cells stably expressing Amyloid Precursor Protein (APP). As to the kind of experiment: In vitro BACE cell-based assay (HEK cell assay): Aβ40 in conditioned medium by sandwich ELISA. The conditions noted are these: Aβ40 in conditioned medium after 24 h incubation. A digest of the protocol: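 APP-stably-expressing cells were grown 24 h in DMEM/10% FBS, then treated for 24 h with 10-point doses starting at 100 μM or 10 μM, at 0.1% DMSO final. Aβ40 in conditioned medium was measured by sandwich ELISA (pAb40 capture, biotinylated 6E10 detection, europium time-resolved fluorescence); IC50 from percent inhibition.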
For orientation: ELISA stands for enzyme-linked immunosorbent assay.

The next test has as its target BACE1 (Homo sapiens, UniProt P56817). As to the kind of experiment: In vitro enzymatic BACE FRET (fluorescence resonance energy transfer) assay. It is filed as biochemical. An outline of the steps:
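Cleavage of a quenched peptide FRET substrate (50 nM) in 0.05 M acetate pH 4.2, 10% DMSO, 100 uM genapol, 1 h incubation. Reaction stopped by Tris neutralization; fluorescence read at excitation 488 nm / […].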

BACE1, sequence (P56817 46-501, species assumed): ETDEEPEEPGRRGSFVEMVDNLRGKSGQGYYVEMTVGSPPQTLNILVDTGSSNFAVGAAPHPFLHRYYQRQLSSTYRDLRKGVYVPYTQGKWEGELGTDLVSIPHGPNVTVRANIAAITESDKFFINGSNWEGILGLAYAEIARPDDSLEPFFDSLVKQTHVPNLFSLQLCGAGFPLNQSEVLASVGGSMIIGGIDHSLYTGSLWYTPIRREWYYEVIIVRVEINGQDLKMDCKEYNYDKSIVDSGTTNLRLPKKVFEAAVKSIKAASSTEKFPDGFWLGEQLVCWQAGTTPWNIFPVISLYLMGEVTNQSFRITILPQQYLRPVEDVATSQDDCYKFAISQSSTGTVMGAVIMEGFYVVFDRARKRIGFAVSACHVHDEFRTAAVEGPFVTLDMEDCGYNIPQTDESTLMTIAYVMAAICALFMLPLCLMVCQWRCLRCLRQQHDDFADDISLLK

For the molecule `C=CC[C@H](NC(=O)[C@@H](OC)C(C)C)[C@H](O)CN[C@H]1CC2(CCC2)Oc2ncc(CC(C)(C)C)cc21` [Example 149, (2S)-N-((1S)-1-((1R)-2-(((4′S)-6′-(2,2-dimethylpropyl)-3′,4′-dihydrospiro[cyclobutane-1,2′-pyrano[2,3-b]pyridin]-4′-yl)amino)-1-hydroxyethyl)-3-buten-1-yl)-3-methyl-2-(methyloxy)butanamide], the IC50 – broadly, the midpoint of a concentration-inhibition curve – came out at 1.87 µM in test [1] (Homo sapiens, HEK293, 24 h) and 0.934 µM on BACE1.

For `C=CC[C@H](NC(=O)c1c(F)cccc1F)[C@H](O)CN[C@H]1CC2(CCC2)Oc2ncc(CC(C)(C)C)cc21` [Example 72, N-((1S)-1-((1R)-2-(((4′S)-6′-(2,2-dimethylpropyl)-3′,4′-dihydrospiro[cyclobutane-1,2′-pyrano[2,3-b]pyridin]-4′-yl)amino)-1-hydroxyethyl)-3-buten-1-yl)-2,6-difluorobenzamide], the 50% inhibitory concentration (IC50) in test [1] (Homo sapiens, HEK293, 24 h) turned out to be 3.57 µM; at BACE1, 0.276 µM.

On to `C#CC[C@H](NC(C)=O)[C@H](O)CN[C@H]1CC2(CCC2)Oc2ncc(CC(C)(C)C)cc21` [Example 84, N-((1S)-1-((1R)-2-(((4′S)-6′-(2,2-dimethylpropyl)-3′,4′-dihydrospiro[cyclobutane-1,2′-pyrano[2,3-b]pyridin]-4′-yl)amino)-1-hydroxyethyl)-3-butyn-1-yl)acetamide], for which the IC50 in test [1] (Homo sapiens, HEK293, 24 h) stood at 0.222 µM; on BACE1 it was 0.04 µM.

As for `C=CC[C@H](NC(=O)c1cccc2c1OCO2)[C@H](O)CN[C@H]1CC2(CCC2)Oc2ncc(CC(C)(C)C)cc21` [Example 103, N-((1S)-1-((1R)-2-(((4′S)-6′-(2,2-dimethylpropyl)-3′,4′-dihydrospiro[cyclobutane-1,2′-pyrano[2,3-b]pyridin]-4′-yl)amino)-1-hydroxyethyl)-3-buten-1-yl)-1,3-benzodioxole-4-carboxamide], the 50% inhibitory concentration (IC50) was found to be 2.54 µM in test [1] (Homo sapiens, HEK293, 24 h) and 0.216 µM on BACE1.

`C=CC[C@H](NC(=O)c1c(F)ccc(F)c1F)[C@H](O)CN[C@H]1CC2(CCC2)Oc2ncc(CC(C)(C)C)cc21` [Example 75, N-((1S)-1-((1R)-2-(((4′S)-6′-(2,2-dimethylpropyl)-3′,4′-dihydrospiro[cyclobutane-1,2′-pyrano[2,3-b]pyridin]-4′-yl)amino)-1-hydroxyethyl)-3-buten-1-yl)-2,3,6-trifluorobenzamide]: the concentration for half-maximal inhibition (IC50) in test [1] (Homo sapiens, HEK293, 24 h) came to 0.366 µM; at BACE1, 0.253 µM.

As to `C=CC[C@H](NC(C)=O)[C@H](O)CN[C@H]1C[C@]2(CC[C@@H]2O)Oc2ncc(CC(C)(C)C)cc21` [Example 51, N-((1S)-1-((1R)-2-(((1S,2S,4′S)-6′-(2,2-dimethylpropyl)-2-hydroxy-3′,4′-dihydrospiro[cyclobutane-1,2′-pyrano[2,3-b]pyridin]-4′-yl)amino)-1-hydroxyethyl)-3-buten-1-yl)acetamide], the IC50 in test [1] (Homo sapiens, HEK293, 24 h) stood at 0.212 µM; at BACE1, 0.063 µM.

On to `C=CC[C@H](NC(=O)c1nccs1)[C@H](O)CN[C@H]1CC2(CCC2)Oc2ncc(CC(C)(C)C)cc21` [Example 133, N-((1S)-1-((1R)-2-(((4′S)-6′-(2,2-dimethylpropyl)-3′,4′-dihydrospiro[cyclobutane-1,2′-pyrano[2,3-b]pyridin]-4′-yl)amino)-1-hydroxyethyl)-3-buten-1-yl)-1,3-thiazole-2-carboxamide], for which the IC50 was 0.167 µM in test [1] (Homo sapiens, HEK293, 24 h) and 0.106 µM at BACE1.

Turning to `C=CC[C@H](NC(=O)[C@@H](F)C(F)(F)F)[C@H](O)CN[C@H]1CC2(CCC2)Oc2ncc(CC(C)(C)C)cc21` [Example 137, (2R)-N-((1S)-1-((1R)-2-(((4′S)-6′-(2,2-dimethylpropyl)-3′,4′-dihydrospiro[cyclobutane-1,2′-pyrano[2,3-b]pyridin]-4′-yl)amino)-1-hydroxyethyl)-3-buten-1-yl)-2,3,3,3-tetrafluoropropanamide], the IC50 in test [1] (Homo sapiens, HEK293, 24 h) stood at 0.633 µM; at BACE1, 0.079 µM.

As for `C=CC[C@H](NC(=O)[C@H](F)c1ccccc1)[C@H](O)CN[C@H]1CC2(CCC2)Oc2ncc(CC(C)(C)C)cc21` [Example 143, (2R)-N-((1S)-1-((1R)-2-(((4′S)-6′-(2,2-dimethylpropyl)-3′,4′-dihydrospiro[cyclobutane-1,2′-pyrano[2,3-b]pyridin]-4′-yl)amino)-1-hydroxyethyl)-3-buten-1-yl)-2-fluoro-2-phenylethanamide], the IC50 in test [1] (Homo sapiens, HEK293, 24 h) came to 0.539 µM; at BACE1, 2.89 µM.

As for `C#CCC(NC(=O)C1CCC(=O)O1)C(O)CNC1CC2(CCC2)Oc2ncc(CC(C)(C)C)cc21` [Example 37, (2R)-N-((1S)-1-((1R)-2-(((1s,3S,4′S)-6′-(2,2-dimethylpropyl)-3′,4′-dihydrospiro[cyclobutane-1,2′-pyrano[2,3-b]pyridin]-4′-yl)amino)-1-hydroxyethyl)-3-butyn-1-yl)-5-oxotetrahydro-2-furancarboxamide], the IC50 in test [1] (Homo sapiens, HEK293, 24 h) came to 0.133 µM; on BACE1, 0.018 µM.

Consider `CC(=O)N[C@@H](CC=C1CCC1)[C@H](O)CN[C@H]1CC2(CCC2)Oc2ncc(CC(C)(C)C)cc21` [Example 83, N-((1S,2R)-1-(2-cyclobutylideneethyl)-3-(((4′S)-6′-(2,2-dimethylpropyl)-3′,4′-dihydrospiro[cyclobutane-1,2′-pyrano[2,3-b]pyridin]-4′-yl)amino)-2-hydroxypropyl)acetamide], for which the IC50 was 0.018 µM in test [1] (Homo sapiens, HEK293, 24 h) and 0.011 µM on BACE1.

Consider `C=CC[C@H](NC(=O)c1cccnn1)[C@H](O)CN[C@H]1CC2(CCC2)Oc2ncc(CC(C)(C)C)cc21` [Example 57, N-((1S)-1-((1R)-2-(((4′S)-6′-(2,2-dimethylpropyl)-3′,4′-dihydrospiro[cyclobutane-1,2′-pyrano[2,3-b]pyridin]-4′-yl)amino)-1-hydroxyethyl)-3-buten-1-yl)-3-pyridazinecarboxamide], for which the IC50 came out at 0.228 µM in test [1] (Homo sapiens, HEK293, 24 h) and 0.131 µM at BACE1.

For `CC=CC[C@H](NC(C)=O)[C@H](O)CN[C@H]1CC2(CC(F)C2)Oc2ncc(CC(C)(C)C)cc21` (stereo partly drawn) [Example 109, N-((1S)-1-((1R)-2-(((1s,3S,4′S)-6′-(2,2-dimethylpropyl)-3-fluoro-3′,4′-dihydrospiro[cyclobutane-1,2′-pyrano[2,3-b]pyridin]-4′-yl)amino)-1-hydroxyethyl)-3-penten-1-yl)acetamide], the figures for the IC50 (in test [1]; on BACE1) were 0.062 µM and 0.037 µM, respectively.

With `C=CC[C@H](NC(=O)COC)[C@H](O)CN[C@H]1CC2(CCC2)Oc2ccc(CC(C)C)cc21` [Example 35, N-((1S)-1-((1R)-1-hydroxy-2-(((4S)-6-(2-methylpropyl)-3,4-dihydrospiro[chromene-2,1′-cyclobutan]-4-yl)amino)ethyl)-3-buten-1-yl)-2-(methyloxy)acetamide], the IC50 in test [1] (Homo sapiens, HEK293, 24 h) came to 0.624 µM; on BACE1, 0.104 µM.

On to `C=CC[C@H](NC(C)=O)[C@H](O)CN[C@H]1CC2(CCC2)Oc2c1cc(CC(C)(C)C)nc2N(C)C` [Example 45, N-((1S)-1-((1R)-2-(((4′S)-8′-(dimethylamino)-6′-(2,2-dimethylpropyl)-3′,4′-dihydrospiro[cyclobutane-1,2′-pyrano[2,3-c]pyridin]-4′-yl)amino)-1-hydroxyethyl)-3-buten-1-yl)acetamide], for which the IC50 came out at 6.34 µM in test [1] (Homo sapiens, HEK293, 24 h) and 0.905 µM at BACE1.

In the case of `C=CC[C@H](NC(=O)[C@@H](CC)OC)[C@H](O)CN[C@H]1CC2(CCC2)Oc2ncc(CC(C)(C)C)cc21` [Example 146, (2R)-N-((1S)-1-((1R)-2-(((4′S)-6′-(2,2-dimethylpropyl)-3′,4′-dihydrospiro[cyclobutane-1,2′-pyrano[2,3-b]pyridin]-4′-yl)amino)-1-hydroxyethyl)-3-buten-1-yl)-2-(methyloxy)butanamide], the half-maximal inhibitory concentration (IC50) came to 0.247 µM in test [1] (Homo sapiens, HEK293, 24 h) and 0.565 µM on BACE1.

`C=C(C)C[C@H](NC(=O)CF)[C@H](O)CN[C@H]1CC2(CCC2)Oc2ncc(CC(C)(C)C)cc21` [Example 100, N-((1S)-1-((1R)-2-(((4′S)-6′-(2,2-dimethylpropyl)-3′,4′-dihydrospiro[cyclobutane-1,2′-pyrano[2,3-b]pyridin]-4′-yl)amino)-1-hydroxyethyl)-3-methyl-3-buten-1-yl)-2-fluoroacetamide]: the IC50 in test [1] (Homo sapiens, HEK293) was 3.33 µM; on BACE1 it was 3.65 µM.

Regarding `C=CC[C@H](NC(=O)c1c(F)cc(F)cc1F)[C@H](O)CN[C@H]1CC2(CCC2)Oc2ncc(CC(C)(C)C)cc21` [Example 78, N-((1S)-1-((1R)-2-(((4′S)-6′-(2,2-dimethylpropyl)-3′,4′-dihydrospiro[cyclobutane-1,2′-pyrano[2,3-b]pyridin]-4′-yl)amino)-1-hydroxyethyl)-3-buten-1-yl)-2,4,6-trifluorobenzamide], the IC50 in test [1] (Homo sapiens, HEK293, 24 h) is 3 µM; at BACE1, 0.641 µM.

`C=CC[C@H](NC(=O)c1cccc(F)c1F)[C@H](O)CN[C@H]1CC2(CCC2)Oc2ncc(CC(C)(C)C)cc21` [Example 69, N-((1S)-1-((1R)-2-(((4′S)-6′-(2,2-dimethylpropyl)-3′,4′-dihydrospiro[cyclobutane-1,2′-pyrano[2,3-b]pyridin]-4′-yl)amino)-1-hydroxyethyl)-3-buten-1-yl)-2,3-difluorobenzamide]: the 50% inhibitory concentration (IC50) in test [1] (Homo sapiens, HEK293, 24 h) was 0.121 µM; at BACE1, 0.155 µM.

Values taken from US8633315B2, “Substituted hydroxyethyl amine compounds as beta-secretase modulators and methods of use” (Amgen Inc., priority 2007, dated 2014).
